These results are taken from ChEMBL document CHEMBL5126640, “Sanggenon C Suppresses Tumorigenesis of Gastric Cancer by Blocking ERK-Drp1-Mediated Mitochondrial Fission” (J Nat Prod, 2022).

For experiment [1], the system named is HGC-27. Description: Inhibition of ERK signalling pathway in human […] cells assessed as downregulation of p-ERK levels at 0 to 10 uM and measured after 24 hrs by western blot analysis. Format: cell-based. To be noted: dose 0-10 µM.
For experiment [2], the system named is AGS. Description: Induction of apoptosis in human AGS cells assessed as upregulation of Bax level at 0 to 10 uM by Western blot analysis. Format: functional, cell-based. To be noted: dose 0-10 µM.
Experiment [3] has as its system AGS. Description: Induction of apoptosis in human AGS cells assessed as early apoptotic cells measured after 24 hrs by AnnexinV-FITC/PI staining based flow cytometry method (reference value: 2%). Format: functional.
The subject of experiment [4] is AGS. As to the kind of experiment: Induction of cell cycle arrest in human AGS cells assessed as accumulation of cells at G0/G1 phase at 6 uM incubated for 24 hrs propidium iodide staining-based flow cytometric analysis (reference value: 46.51%). Format: functional.
The subject of experiment [5] is AGS. As to the kind of experiment: Induction of apoptosis in human AGS cells assessed as late apoptotic cells at 8 uM measured after 24 hrs by AnnexinV-FITC/PI staining based flowcytometry method (reference value: 3.4%). Format: functional.
Experiment [6] has as its system AGS. As to the kind of experiment: Induction of apoptosis in human AGS cells assessed as late apoptotic cells at 10 uM measured after 24 hrs by AnnexinV-FITC/PI staining based flowcytometry method (reference value: 3.4%). Format: functional.
Experiment [7] relates to HGC-27. Description: Induction of apoptosis in human HGC-27 cells assessed as late apoptotic cells measured after 24 hrs by AnnexinV-FITC/PI staining based flow cytometry method (reference value: 1.6%). Format: functional.
Experiment [8] has as its system HGC-27. As to the kind of experiment: Induction of apoptosis in human HGC-27 cells assessed as late apoptotic cells at 6 uM measured after 24 hrs by AnnexinV-FITC/PI staining based flowcytometry method (reference value: 5.4%). The class given is functional.
The test system of experiment [9] is AGS. As to the kind of experiment: Inhibition of mitochondrial fission in human AGS cells assessed as reduction in ATP content at 0 to 10 uM measured after 24 hrs by microplate reader assay. The class given is functional, cell-based. To be noted: dose 0-10 µM.
Experiment [10] has as its system HGC-27. As to the kind of experiment: Inhibition of mitochondrial fission in human HGC-27 cells assessed as downregulation of p-DRP1 at 0 to 10 uM measured after 24 hrs by Western blot analysis. To be noted: dose 0-10 µM. Format: functional, cell-based.
Experiment [11] relates to HGC-27. As to the kind of experiment: Induction of apoptosis in human HGC-27 cells assessed as viable cells at 6 uM measured after 24 hrs by AnnexinV-FITC/PI staining based flowcytometry method (reference value: 91.1%). Format: functional. Particulars: read-out: Activity.
For experiment [12], the system named is HGC-27. As to the kind of experiment: Induction of apoptosis in human HGC-27 cells assessed as early apoptotic cells measured after 24 hrs by AnnexinV-FITC/PI staining based flow cytometry method (reference value: 1.6%). Format: functional.
Experiment [13] concerns HGC-27. As to the kind of experiment: Induction of apoptosis in human HGC-27 cells assessed as late apoptotic cells at 8 uM measured after 24 hrs by AnnexinV-FITC/PI staining based flowcytometry method (reference value: 5.4%). The class given is functional.
Experiment [14] relates to HGC-27. Description: Induction of apoptosis in human HGC-27 cells assessed as viable cells at 8 uM measured after 24 hrs by AnnexinV-FITC/PI staining based flowcytometry method (reference value: 91.1%). The class given is functional. Particulars: read-out: Activity.
For experiment [15], the system named is AGS. As to the kind of experiment: Inhibition of mitochondrial fission in human AGS cells assessed as downregulation of p-DRP1 at 0 to 10 uM measured after 24 hrs by Western blot analysis. The class given is functional, cell-based. Particulars: dose 0-10 µM.

Each structure is given as a SMILES string. The source made the active and inactive calls. No cut-off for these calls is given here.

As for `CC(C)=CCC12Oc3cc(O)ccc3C1(O)Oc1cc(O)c([C@H]3C=C(C)C[C@H](c4ccc(O)cc4O)[C@H]3C(=O)c3ccc(O)cc3O)c(O)c1C2=O` (stereo not given in full), the inhibition entry with HGC-27 [1], in the experiment on AGS [9], in the experiment on HGC-27 [10] and with AGS [15] was “Active” throughout. Further, in the experiment on AGS [2], the outcome was Active. Further, the Activity with AGS [3] was 3.5%; with AGS [4], 54.7%; with AGS [5], 7.9%; in the experiment with AGS [6] it was 15.3%; with HGC-27 [7] it was 3.9%; in the experiment with HGC-27 [8] it was 10%. The Activity turned out to be 4.3% with HGC-27 [12] and 11.1% with HGC-27 [13]. Moreover, the viability at 6 µM in the experiment on HGC-27 [11] worked out at 84.2%. The viability at 8 µM with HGC-27 [14] was 83.1%.
